Experiments:
[1] = system: NSCLC CDX model HCC827-ER1 (EGFR exon 19 deletion E746-A750); conditions: mouse, in vivo
Description: Body weights were measured twice per week after randomization.

cMET than EGFR = conditions: Moores et al. (2016); cited from earlier work

Compound: C=CC(=O)Nc1cc(Nc2nccc(-c3cn(C)c4ccccc34)n2)c(OC)cc1N(C)CCN(C)C [Osimertinib]
- absolute body weight [1]: lower compared to Groups 1 and 2

Compound: JNJ-61186372: bispecific cMET×EGFR antibody produced by controlled Fab-arm exchange (Moores et al 2016)
- affinity imbalance, greater affinity for cMET than EGFR (cMET than EGFR): approximately 40 ×

Source: patent publication US20250179193A1, “TREATMENT WITH AN ANTIBODY THAT BINDS EGFR AND CMET” (MERUS N.V., priority 2022, published 2025)
